The values that follow come from patent US20140256945A1, “PHOSPHONIC ACID COMPOUNDS AS SPHINGOSINE-1-PHOSPHATE RECEPTOR MODULATORS” (Allergan, Inc., priority 2013, published 2014).

pEC50: −log10 of the molar value.

T1 sequence (P21453 whole entry): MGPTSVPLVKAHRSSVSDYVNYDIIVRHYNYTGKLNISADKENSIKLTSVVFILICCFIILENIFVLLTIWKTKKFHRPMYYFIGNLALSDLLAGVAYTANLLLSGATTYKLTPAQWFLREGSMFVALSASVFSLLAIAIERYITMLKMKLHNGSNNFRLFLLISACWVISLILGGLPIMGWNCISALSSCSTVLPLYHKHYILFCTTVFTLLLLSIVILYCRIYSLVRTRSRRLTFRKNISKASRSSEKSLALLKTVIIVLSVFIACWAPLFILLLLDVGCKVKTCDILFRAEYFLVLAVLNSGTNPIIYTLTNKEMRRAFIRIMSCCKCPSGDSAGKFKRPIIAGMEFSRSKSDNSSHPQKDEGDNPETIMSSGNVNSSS

In one assay the test system is blood lymphocytes. The assay can be described thus: Lymphopenia Assay in Mice. Type of assay: in vivo. As to conditions: female C57BL6 mice, 0.5 mg/Kg subcutaneous, after 5 hours. As for the experimental part:
Test drugs are prepared in a solution containing 3% (w/v) 2-hydroxy propyl β-cyclodextrin (HPBCD) and 1% DMSO to a final concentration of 1 mg/ml, and subcutaneously injected to female C57BL6 mice (CHARLES RIVERS) weighing 20-25 g at the dose of 0.5 to 10 mg/Kg. Blood samples are obtained by puncturing the submandibular skin with a Goldenrod animal lancet at 5, 24, 48, and 72 hrs post drug application. Blood is collected into microvettes (SARSTEDT) containing EDTA tripotassium salt. Lymphocytes in blood samples are counted using a HEMAVET Multispecies Hematology System, HEMAVET HV950FS (Drew Scientific Inc.). • (Hale, J. et al Bioorg.& Med. Chem. Lett. 14 (2004) 3351).
A lymphopenia assay in mice; as previously described, was employed to measure the in vivo blood lymphocyte depletion after dosing with the test compound (3-{[2,5-difluoro-4-(6-phenylhexyl)benzyl]amino}propyl)phosphonic acid Compound-10. This S1P1 modulator, (3-{[2,5-difluoro-4-(6-phenylhexyl)benzyl]amino}propyl)phosphonic acid Compound-10 is useful for S1P-related diseases and exemplified by the lymphopenia in vivo response. […] Lymphocytes in blood samples were counted using a HEMAVET Multispecies Hematology System, HEMAVET HV950FS (Drew Scientific Inc.). […]
For `O=P(O)(O)CCCNCc1cc(F)c(CCCCCCc2ccccc2)cc1F` [Compound 10, (3-{[2,5-difluoro-4-(6-phenylhexyl)benzyl]amino}propyl)phosphonic acid], the “lymphocyte count (number of lymphocytes)” value is < 1 10^3/μL blood.

The assay is the same for the next values; noted with them: mice, 0.5 mg/kg, 5, 24, 48, 72 hours (FIG. 1).
As to `O=P(O)(O)CCCNCc1cc(F)c(CCCCCCc2ccccc2)cc1F` [Compound 10, (3-{[2,5-difluoro-4-(6-phenylhexyl)benzyl]amino}propyl)phosphonic acid], the Lymphopenia entry is on record as “Lymphopenia was induced”.

Another assay concerns the target T1, human S1P1 receptor (Homo sapiens, UniProt P21453).
T1 construct: expressed in transfected cells; membranes used
Briefly: GTP γ35S binding assay for S1P1 activity. The following applies: membranes of cells stably expressing S1P1 receptor, agonist potency. Type of assay: biochemical. The procedure: Compounds were tested for S1P1 activity using the GTP γ^35S binding assay. These compounds may be assessed for their ability to activate or block activation of the human S1P1 receptor in cells stably expressing the S1P1 receptor.
GTP γ^35S binding was measured in the medium containing (mM) HEPES 25, pH 7.4, MgCl2 10, NaCl 100, dithitothreitol 0.5, digitonin 0.003%, 0.2 nM GTP γ^35S, and 5 μg membrane protein in a volume of 150 μl. Test compounds were included in the concentration range from 0.08 to 5,000 nM unless indicated otherwise. Membranes were incubated with 100 μM 5′-adenylylimmidodiphosphate for 30 min, and subsequently with 10 μM GDP for 10 min on ice. Drug solutions and membrane were mixed, and then reactions were initiated by adding GTP γ^35S and continued for 30 min at 25° C. Reaction mixtures were filtered over Whatman GF/B filters under vacuum, and washed three times with 3 mL of ice-cold buffer (HEPES 25, pH7.4, MgCl2 10 and NaCl 100). Filters were dried and mixed with scintillant, and counted for ^35S activity using a β-counter. Agonist-induced GTP γ^35S binding was obtained by subtracting that in the absence of agonist. Binding data were analyzed using a non-linear regression method. In case of antagonist assay, the reaction mixture contained 10 nM S1P in the presence of test antagonist at concentrations ranging from 0.08 to 5000 nM.
(In general: GTPγS resists hydrolysis and so accumulates on activated G proteins.)
As usually defined, the pEC50 is the negative decadic logarithm of the EC50, by convention in mol/L. A lower pEC50 goes with a large EC50. In turn, `O=P(O)(O)CCCNCc1ccc(C#CCCCCc2ccccc2)c(F)c1` [Compound 1, (3-{[3-fluoro-4-(6-phenylhex-1-yn-1-yl)benzyl]amino}propyl)phosphonic acid] had a negative logarithm of the EC50 (pEC50) of 8.37.
Same read-out and setting: the figure for `Cc1cc(CNCCCP(=O)(O)O)ccc1C#CCCCCc1ccccc1` [Compound 2, (3-{[3-methyl-4-(6-phenylhex-1-yn-1-yl)benzyl]amino}propyl)phosphonic acid] is 8.47; for `O=P(O)(O)CCCNCc1ccc(C#CCCCCc2ccccc2)cc1` [Compound 3, (3-{[4-(6-phenylhex-1-yn-1-yl)benzyl]amino}propyl)phosphonic acid] it is 7.57.
On the same count and under the same terms, with `O=P(O)(O)CCCNCc1ccc(C#CCCCCc2ccccc2)c(Br)c1` [Compound 4, (3-{[3-bromo-4-(6-phenylhex-1-yn-1-yl)benzyl]amino}propyl)phosphonic acid] the figure was 7.66; with `O=P(O)(O)CCCNCc1ccc(CCCCCCc2ccccc2)c(F)c1` [Compound 5, (3-{[3-fluoro-4-(6-phenylhexyl)benzyl]amino}propyl)phosphonic acid], 8.38.
On to `Cc1cc(CNCCCP(=O)(O)O)ccc1CCCCCCc1ccccc1` [Compound 6, (3-{[3-methyl-4-(6-phenylhexyl)benzyl]amino}propyl)phosphonic acid], for which the negative-log EC50 (pEC50) is 9.15.
For the compound `O=P(O)(O)CCCNCc1ccc(CCCCCCc2ccccc2)c(C(F)(F)F)c1` [Compound 7, (3-{[4-(6-phenylhexyl)-3-(trifluoromethyl)benzyl]amino}propyl)phosphonic acid], the pEC50 was 7.95.
With `O=P(O)(O)CCCNCc1ccc(CCCCCCc2ccccc2)c(Cl)c1` [Compound 8, (3-{[3-chloro-4-(6-phenylhexyl)benzyl]amino}propyl)phosphonic acid], the pEC50 is 9.30.
The same measure, in the same setting: with `O=P(O)(O)CCCNCc1ccc(CCCCCCc2ccccc2)cc1` [Compound 9, (3-{[4-(6-phenylhexyl)benzyl]amino}propyl)phosphonic acid] the figure was 8.17; with `O=P(O)(O)CCCNCc1cc(F)c(CCCCCCc2ccccc2)cc1F` [Compound 10, (3-{[2,5-difluoro-4-(6-phenylhexyl)benzyl]amino}propyl)phosphonic acid], 8.72.
The same measure, in the same setting: the figure for `O=C(CCCCc1ccccc1)Nc1ccc(CNCCCP(=O)(O)O)cc1Br` [Compound 11, [3-({3-bromo-4-[(5-phenylpentanoyl)amino]benzyl}amino)propyl]phosphonic acid] is 6.98; for `O=P(O)(O)CCCNCc1ccc(NCCCCCc2ccccc2)c(Br)c1` [Compound 12, [3-({3-bromo-4-[(5-phenylpentyl)amino]benzyl}amino)propyl]phosphonic acid] it is 8.39.
